Data set [1] relates to HCPC-1 cells. In words: Phototoxicity to HCPC-1 cells after irradiation, MTT assay. The class given is cell-based, hamster. To be noted: 5 μM photosensitizer, light 630-710 nm, MTT 24 h after irradiation. On the procedure: HCPC-1 cells, 2×10^4 in aliquots of 100 μl growth medium with 10% FCS, were seeded in 96-well plates and cultured for 24 h until 70% confluent. Six wells from each plate were incubated with 5 μM of each photosensitizer and irradiated using the conditions described in Example 3. After illumination, cells were incubated with fresh medium at 37° C. for 24 h. Control cells were incubated under the conditions as in Example 3. Cell viability was determined 24 h after irradiation using the MTT-microculture tetrazolium assay, a method that assesses dehydrogenase activity in mitochondria of live cells (Mosmann T. J. Immunol. Methods 65, 55-63, 1983), and survival fractions were calculated as 570 nm absorbance of treated cells divided by that of unirradiated controls.
(Formazan colour is commonly taken as a measure of viable cells.)

Data set [2] relates to P. gingivalis. The data set is classed as cell-based, Porphyromonas gingivalis. As to the method: In order to establish the effectiveness and selectivity of these conjugates for killing bacteria while sparing mammalian cells, the three conjugates were compared to two widely used clinical photosensitizers, Photofrin II and benzoporphyrin derivative (BPD) (QLT Phototherapeutics Inc., Vancouver, BC). Photosensitizer bulk solid was dissolved in DMSO at 1 mM and diluted in TSB.
Suspensions of P. gingivalis cells (10^8/ml) were incubated in duplicate in the dark at room temperature for 1 min with 5 μm chlorin e6 equivalent of each conjugate, with Photofrin II, and with BPD. Cells were centrifuged, washed once with sterile PBS, and 1 ml fresh TSB was added. In the Example here, the ratios of uptake of chlorin e6 per mg cell protein in P. gingivalis and HCPC-1 cells for the cationic, anionic and neutral conjugates were 46:1, 60:1 and 22:1, respectively.
Bacterial suspensions were added to wells of 12-well plates, and were irradiated in the dark at room temperature using a light emitting diode array which emitted light with wavelengths from 630-710 nm, spanning the absorbance maxima of these photosensitizer compositions. Wells were exposed from below, using fluences from 0 to 25 J/cm^2 at an irradiance of 65 mW/cm^2. Plates were covered during illumination to maintain sterility of the cultures. After illumination of the appropriate wells, serial dilutions of the contents of each well were prepared in TSB, and duplicate 100 μl aliquots were spread on the surfaces of blood agar plates. Survival fractions in each well were calculated by counting the colonies on the plates and dividing by number of colonies from unirradiated controls incubated with photosensitizer in the dark at room temperature for periods equal to irradiation times. Other controls were: bacteria treated neither with photosensitizer nor light, and incubated at room temperature in the dark, and cells exposed to light in the absence of photosensitizer.

The test system of data set [3] is Porphyromonas gingivalis 381. In words: Uptake of chlorin e6 conjugates by P. gingivalis cells (fluorescence of cell extract per mg cell protein). The class given is cell-based. To be noted: P. gingivalis 10^9 cells/ml, 1 min incubation, at each concentration (1, 5 and 10 μm chlorin e6 equivalent). As to the method: Porphyromonas gingivalis 381, a Gram negative bacterium and one of the most common species in dental plaque, was maintained by weekly subculture in Trypticase Soy Agar (TSA) with 1% hemin, 1% vitamin K and 5% sheep blood. For experimental purposes, the organism was grown anaerobically in a chamber with 80% N2, 10% CO2 at 35° C. for 48 h, harvested by centrifugation and resuspended in Trypticase Soy Broth (TSB) with 1% hemin and 1% vitamin K. Cells were dispersed by sonication and repeated passage through Pasteur pipettes. Cell numbers were measured in a spectrophotometer (at wavelength 600 nm, in which an O.D. of 1 yields 10^8 cells/ml) using one ml tubes, to obtain the appropriate number of bacteria for each experiment (10^9 cells/ml for uptake studies and 10^8 cells/ml for irradiation studies). […]
Fluorescence of each cell extract was measured on a spectrofluorimeter (model FluoroMax, SPEX Industries, Edison, N.J.). The excitation wavelength was 400 nm and emission spectra of cell suspensions were recorded from 580 to 700 nm. The protein content of each cell extract was determined by a modified Lowry method (Markwell M. A. et al. Anal. Biochem. 87:206, 1978) using bovine serum albumin dissolved in 0.1 M NaOH/1% SDS as a protein standard to construct calibration curves. Results were expressed as mol chlorin e6 taken up per mg cell protein.

Data set [4] concerns P. gingivalis. To be noted: cited from earlier work.

Here are results for five substances from US7268155B2, “Photosensitizer conjugates for pathogen targeting” (The General Hospital Corporation, priority 1997, dated 2007).

Turning to “polylysine chlorin e6 acetylated [polylysine-chlorin e6-ac]”, the “killing of HCPC-1 cells (in words)” value in data set [1] is recorded as “not HCPC-1 cells”. Also, in data set [2], the “bacteria killed / reduction in viability of P. gingivalis” value is “over 90%”.

In the case of “polylysine chlorin e6 [polylysine-chlorin e6]”, the HCPC-1 cells killed entry in data set [1] is given as “less than 2%”. Moreover, the “accumulation of the cationic conjugate compared to the anionic and neutral conjugates” value in data set [3] came to 2 times. Besides, the “bacteria killed / reduction in viability of P. gingivalis” value in data set [2] is 99.9%.

For the substance histatin-5, the “number of molecules that bind P. gingivalis” value in data set [4] is “About 3,600 molecules”. In addition, in data set [4] (read-out: Kd of binding to P. gingivalis), the dissociation constant Kd was about 1000 nM.

For the substance “polylysine chlorin e6-succinylated [polylysine-chlorin e6-succ]”, the “bacteria killed / reduction in viability of P. gingivalis” value in data set [2] is reported as 66%.

Regarding “benzoporphyrin derivative [BPD, reference compound]”, the “killing of HCPC-1 cells (in words)” value in data set [1] is “killed HCPC-1 cells”. Further, the “killing of P. gingivalis (in words)” value in data set [2] (1 min incubation, light 630-710 nm, fluences 0 to 25 J/cm^2) is “not P. gingivalis”.

By Kd is commonly meant the equilibrium constant for the complex coming apart.
